From ChEMBL document CHEMBL4402559, “Structure-Based Design and Pharmacokinetic Optimization of Covalent Allosteric Inhibitors of the Mutant GTPase KRASG12C” (J Med Chem, 2020)
Activity calls are given as the source filed them. No cut-off for these calls is given here.

Experiments:
[1] = Distribution coefficient, log D of compound at pH 7.4; assay type: physicochemical; settings: octanol/water
[2] = Intrinsic clearance in rat hepatocytes assessed per 10^-6 cells; assay type: ADME, cell-based, Hepatocyte
[3] = Intrinsic clearance in human liver microsomes; assay type: ADME, Microsome; settings: for microsomal CLint: liver microsomes, read-out: CLH
GTPase KRas = GTPase KRas (Homo sapiens, UniProt P01116, G12C); assay: Inhibition of GDP bound biotinylated human C-terminal Avi/His6-tagged KRAS G12C mutant (1 to 166 residues) expressed in Escherichia coli BL21 (DE3) assessed as reduction in SOS1-mediated GDP/GTP nucleotide exchange by preventing recognition between KRAS G12C mutant and Ras binding domain of N-terminal Avi/GST-tagged Raf-1 (51 to 149 residues) preincubated for 4 hrs followed by SOS1 and GTPgammaS addition by FRET assay
[4] = GSH reactivity in PBS buffer assessed as half life at pH 7.4 and 37 degree C in presence of glutathione; assay type: physicochemical; settings: PBS buffer with glutathione
[5] = Efflux ratio of apparent permeability in human Caco2 cells at 10 uM at pH 7.4; assay type: ADME, cell-based; settings: Caco-2, pH 7.4
[6] = Volume of distribution at steady state in Han Wistar rat at 2 umol/kg, po or 1 umol/kg, iv; settings: in vivo
in vivo = settings: Han Wistar, rat, po, 2 umol/kg
[7] = Clearance in Han Wistar rat at 2 umol/kg, po or 1 umol/kg, iv; settings: in vivo
Mus musculus = assay: Decrease in DUSP6 mRNA level in tumor of athymic NU-Fox1nu mouse xenografted with human MIAPaca2 cells at 10 to 100 mg/kg, po qd measured at 3 to 24 hrs post-treatment by qRT-PCR analysis; assay type: functional, organism-based
[8] = tested on: GTPase KRas (Homo sapiens), P01116 [G12C]; assay: Inhibition of KRAS G12C mutant in human H358 cells assessed as […] at 1 uM measured after 6 hrs by TQ-UPLC/MS analysis relative to control; assay type: cell-based
[9] = tested on: GTPase KRas (Homo sapiens), P01116 [G12C]; assay: Inhibition of KRAS G12C mutant expressed in human HOP62 cells assessed as […] at 1 uM measured after 6 hrs by TQ-UPLC/MS analysis relative to control; assay type: cell-based
Lu-99 cell line [10] = assay: Antiproliferative activity against human LU99 cells expressing KRAS G12C mutant assessed as cell growth inhibition measured after 5 days by sytox green dye staining based 2D proliferation assay; assay type: functional
[11] = tested on: GTPase KRas (Homo sapiens), P01116 [G12C]; assay: Binding affinity to KRAS G12C mutant in human […] cell lysate assessed as trypsin-mediated biotinylated cysteine residues digestion by measuring reduction in protein level at 4 uM prelabeled with iodoacetamide desthiobiotin followed by compound treatment measured after 4 hrs by MS analysis relative to control; assay type: subcellular
[12] = tested on: GTPase KRas (Homo sapiens), P01116 [UNDEFINED MUTATION]; assay: Inhibition of KRas mutant expressed in human H2291 cells assessed as […] at 1 uM measured after 6 hrs by TQ-UPLC/MS analysis; assay type: cell-based
MIA PaCa-2 = assay: Antitumor activity against human MIAPaCa2 cells harboring KRAS G12C mutant xenografted in orally dosed athymic NU-Fox1nu nude mouse assessed as tumor regression administered daily for 2 weeks and further treated for 3 weeks; assay type: functional, organism-based
[13] = tested on: GTPase KRas (Homo sapiens), P01116 [UNDEFINED MUTATION]; assay: Inhibition of KRas mutant expressed in human A549 cells assessed as […] at 1 uM measured after 6 hrs by TQ-UPLC/MS analysis; assay type: cell-based
[14] = tested on: GTPase KRas (Homo sapiens), P01116 [G12C]; assay: Inhibition of KRAS G12C mutant expressed in human Calu1 cells assessed as […] at 1 uM measured after 6 hrs by TQ-UPLC/MS analysis relative to control; assay type: cell-based
Lu-99 cell line [15] = assay: Antiproliferative activity against human LU99 cells expressing KRAS G12C mutant assessed as cell growth inhibition cultured in soft agar medium containing compounds and supplemented with fresh medium for every 7 days by 3D soft agar proliferation assay; assay type: functional, cell-based
[16] = tested on: GTPase KRas (Homo sapiens), P01116 [G12C]; assay: Inhibition of KRAS G12C mutant expressed in human H2122 cells assessed as […] at 1 uM measured after 6 hrs by TQ-UPLC/MS analysis relative to control; assay type: cell-based
[17] = tested on: GTPase KRas (Homo sapiens), P01116 [G12C]; assay: Inhibition of KRAS G12C mutant expressed in human H23 cells assessed as […] at 1 uM measured after 6 hrs by TQ-UPLC/MS analysis relative to control; assay type: cell-based
[18] = tested on: GTPase KRas (Homo sapiens), P01116 [G12C]; assay: Inhibition of KRAS G12C mutant expressed in human SW1573 cells assessed as […] at 1 uM measured after 6 hrs by TQ-UPLC/MS analysis relative to control; assay type: cell-based
[19] = biological target: GTPase KRas (Homo sapiens) (UniProt P01116); assay: Inhibition of wild type KRAS expressed in human PC9 cells assessed as […] at 1 uM measured after 6 hrs by TQ-UPLC/MS analysis; assay type: cell-based
SW1573 [20] = assay: Antiproliferative activity against human SW1573 cells harboring KRAS G12C mutant assessed as cell growth inhibition measured after 5 days by sytox green dye staining based 2D proliferation assay; assay type: functional
[21] = tested on: GTPase KRas (Homo sapiens), P01116 [G12C]; assay: Inhibition of KRAS G12C mutant expressed in human H1373 cells assessed as […] at 1 uM measured after 6 hrs by TQ-UPLC/MS analysis relative to control; assay type: cell-based
[22] = tested on: GTPase KRas (Homo sapiens), P01116 [G12C]; assay: Inhibition of KRAS G12C mutant expressed in human H1792 cells assessed as […] at 1 uM measured after 6 hrs by TQ-UPLC/MS analysis relative to control; assay type: cell-based
[23] = tested on: GTPase KRas (Homo sapiens), P01116 [G12C]; assay: Inhibition of KRAS G12C mutant expressed in human LU65 cells assessed as […] at 1 uM measured after 6 hrs by TQ-UPLC/MS analysis relative to control; assay type: cell-based
SW1573 [24] = assay: Antiproliferative activity against human SW1573 cells expressing KRAS G12C mutant assessed as cell growth inhibition cultured in soft agar medium containing compounds and supplemented with fresh medium for every 7 days by 3D soft agar proliferation assay; assay type: functional, cell-based
[25] = tested on: GTPase KRas (Homo sapiens), P01116 [G12C]; assay: Inhibition of KRAS G12C mutant expressed in human LU99 cells assessed as […] at 1 uM measured after 6 hrs by TQ-UPLC/MS analysis relative to control; assay type: cell-based
[26] = tested on: GTPase KRas (Homo sapiens), P01116 [G12C]; assay: Inhibition of KRAS G12C mutant expressed in human HCC44 cells assessed as […] at 1 uM measured after 6 hrs by TQ-UPLC/MS analysis relative to control; assay type: cell-based

C=CC(=O)N1CCN2c3c(cnc4c(C)c(-c5c(O)cccc5F)c(Cl)cc34)OC[C@H]2C1 (single isomer, unassigned; atropisomer)
logD ([1]; read-out: logD): 3.8 | hepatocyte intrinsic clearance [2]: 40 µL/min | microsomal CLint [3]: 28 µL/min/mg

C=CC(=O)N1CCN2c3c(cnc4c(OC)c(-c5c(O)cccc5F)c(Cl)cc34)OC[C@H]2C1 (single isomer, unassigned; atropisomer 2)
logD ([1]; read-out: logD): 3 | hepatocyte intrinsic clearance [2]: 56 µL/min | IC50 (GTPase KRas): 70 nM | microsomal CLint [3]: 40 µL/min/mg

C=CC(=O)N1CCN2c3c(cnc4cc(-c5c(O)cccc5F)c(Cl)cc34)OC[C@H]2C1
half-life [4]: 6.93 h | efflux ratio at 10 µM [5]: 0.5 | Vd [6]: 1.2 L/kg | bioavailability (in vivo): 64% | logD ([1]; read-out: logD): 3.6 | hepatocyte intrinsic clearance [2]: 32 µL/min | clearance [7]: 35 mL/min/kg | microsomal CLint [3]: 25 µL/min/mg

C=CC(=O)N1CCN2c3c(cnc4cc(-c5c(C)ccc6[nH]ncc56)c(Cl)cc34)OCC[C@H]2C1
hepatocyte intrinsic clearance [2]: 102 µL/min | IC50 (GTPase KRas): 627 nM | microsomal CLint [3]: > 300 µL/min/mg

C=CC(=O)N1CCN(c2ncnc3cc(-c4c(C)ccc5[nH]ncc45)c(Cl)cc23)CC1
logD ([1]; read-out: logD): 3.5 | hepatocyte intrinsic clearance [2]: 56 µL/min | IC50 (GTPase KRas): 496 nM | microsomal CLint [3]: 38 µL/min/mg

C=CC(=O)N1C[C@@H]2COc3cnc4cc(-c5c(O)cccc5F)c(Cl)cc4c3N2C[C@@H]1C
half-life [4]: 9.75 h | logD ([1]; read-out: logD): 3.7 | hepatocyte intrinsic clearance [2]: 74 µL/min | IC50 (GTPase KRas): 7650 nM | microsomal CLint [3]: 100 µL/min/mg

C=CC(=O)N1CCN2c3c(cnc4cc(-c5c(C)ccc6[nH]ncc56)c(Cl)cc34)OC[C@H]2C1 (single isomer, unassigned; atropisomer 2)
logD [1]: > 4.2 | hepatocyte intrinsic clearance [2]: 65 µL/min | IC50 (GTPase KRas): 1380 nM | Intrinsic clearance in human liver microsomes [3]: 46 µL/min/mg

C=CC(=O)N1CCN2c3c(cnc4cc(-c5c(O)cccc5F)c(Cl)cc34)NC[C@H]2C1
efflux ratio at 10 µM [5]: 1.4 | logD ([1]; read-out: logD): 3.3 | hepatocyte intrinsic clearance [2]: 17 µL/min | microsomal CLint [3]: 18 µL/min/mg

C=CC(=O)N1C[C@@H]2C(=O)N(C)c3cnc4c(F)c(-c5c(O)cccc5F)c(Cl)cc4c3N2C[C@H]1C
inhibition (Mus musculus): Active | inhibition [8]: 82% | inhibition [9]: 89% | growth inhibition (GI) (Lu-99 cell line [10]): inactive | fold change (FC) [11]: > 2 | inhibition [12]: inactive | Activity (MIA PaCa-2): Dose-dependent effect | half-life [4]: 5.57 h | inhibition [13]: inactive | inhibition [14]: 73% | growth inhibition (GI) (Lu-99 cell line [15]): inactive | inhibition [16]: 74% | inhibition [17]: 80% | inhibition [18]: 70% | efflux ratio at 10 µM [5]: 1.1 | Vd [6]: 1 L/kg | bioavailability (in vivo): 94% | logD ([1]; read-out: logD): 3.4 | inhibition [19]: inactive | growth inhibition (GI) (SW1573 [20]): inactive | hepatocyte intrinsic clearance [2]: 11 µL/min | inhibition [21]: 86% | inhibition [22]: 75% | inhibition [23]: 84% | growth inhibition (GI) (SW1573 [24]): inactive | clearance [7]: 4 mL/min/kg | inhibition [25]: 100% | IC50 (GTPase KRas): < 5 nM | inhibition [26]: 79% | microsomal CLint [3]: 21 µL/min/mg

C=CC(=O)N1CCN2c3c(cnc4c(F)c(-c5c(O)cccc5F)c(Cl)cc34)OC[C@H]2C1 (atropisomer aR)
logD ([1]; read-out: logD): 3.4 | hepatocyte intrinsic clearance [2]: 22 µL/min | IC50 (GTPase KRas): 16 nM | microsomal CLint [3]: 17 µL/min/mg

C=CC(=O)N1CCN2c3c(cnc4cc(-c5c(O)cccc5F)c(Cl)cc34)NC(=O)[C@H]2C1
efflux ratio at 10 µM [5]: 17.9 | logD ([1]; read-out: logD): 3 | hepatocyte intrinsic clearance [2]: 11 µL/min | IC50 (GTPase KRas): 73 nM | microsomal CLint [3]: 34 µL/min/mg

C=CC(=O)N1CCN2c3c(cnc4cc(-c5c(C)ccc6[nH]ncc56)c(Cl)cc34)OC[C@@H]2C1 (single isomer, unassigned; atropisomer 2)
logD ([1]; read-out: logD): 4.3 | hepatocyte intrinsic clearance [2]: 75 µL/min | IC50 (GTPase KRas): 610 nM | microsomal CLint [3]: 103 µL/min/mg

C=CC(=O)N1CCN2c3c(cnc4c(F)c(-c5c(O)cccc5F)c(Cl)cc34)N(C)C(=O)[C@H]2C1
half-life [4]: 15.5 h | efflux ratio at 10 µM [5]: 1.5 | Vd [6]: 0.8 L/kg | bioavailability (in vivo): 56% | logD ([1]; read-out: logD): 2.9 | hepatocyte intrinsic clearance [2]: 10 µL/min | clearance [7]: 6 mL/min/kg | microsomal CLint [3]: 21 µL/min/mg

C=CC(=O)N1CCN2c3c(cnc4cc(-c5c(C)ccc6[nH]ncc56)c(Cl)cc34)OCC[C@@H]2C1
hepatocyte intrinsic clearance [2]: 104 µL/min | IC50 (GTPase KRas): 4340 nM | microsomal CLint [3]: 81 µL/min/mg

C=CC(=O)N1CCN2c3c(cnc4cc(-c5c(C)ccc6[nH]ncc56)c(Cl)cc34)OC[C@@H]2C1 (single isomer, unassigned; atropisomer 1)
logD [1]: 4 | hepatocyte intrinsic clearance [2]: 67 µL/min | IC50 (GTPase KRas): 8860 nM | Intrinsic clearance in human liver microsomes [3]: 121 µL/min/mg

C=CC(=O)N1CCN2c3c(cnc4cc(-c5c(C)ccc6[nH]ncc56)c(Cl)cc34)OC[C@H]2C1 (single isomer, unassigned; atropisomer 1)
logD ([1]; read-out: logD): 4.2 | hepatocyte intrinsic clearance [2]: 174 µL/min | Intrinsic clearance in human liver microsomes [3]: 165 µL/min/mg

C=CC(=O)N1CCN2c3c(cnc4cc(-c5c(O)cccc5F)c(Cl)cc34)N(C)C(=O)[C@H]2C1
efflux ratio at 10 µM [5]: 0.9 | logD ([1]; read-out: logD): 3 | hepatocyte intrinsic clearance [2]: 7 µL/min | IC50 (GTPase KRas): 150 nM | microsomal CLint [3]: 24 µL/min/mg

C=CC(=O)N1CCN2c3c(cnc4cc(-c5c(O)cccc5F)c(Cl)cc34)N(C)C[C@H]2C1
efflux ratio at 10 µM [5]: 1.5 | logD ([1]; read-out: logD): 4.1 | hepatocyte intrinsic clearance [2]: 99 µL/min | microsomal CLint [3]: 26 µL/min/mg

C=CC(=O)N1C[C@@H]2COc3cnc4cc(-c5c(O)cccc5F)c(Cl)cc4c3N2C[C@H]1C
half-life [4]: 5.42 h | efflux ratio at 10 µM [5]: 0.7 | Vd [6]: 0.6 L/kg | bioavailability (in vivo): 96% | logD ([1]; read-out: logD): 3.8 | hepatocyte intrinsic clearance [2]: 42 µL/min | clearance [7]: 7 mL/min/kg | IC50 (GTPase KRas): 52 nM | microsomal CLint [3]: 32 µL/min/mg
